The record followed here is patent US9029147B2, “Methods and compositions for enhanced differentiation from embryonic stem cells” (Massachusetts Institute of Technology, priority 2007, dated 2015).

Several values for one entry are separate records, joined by “and”; a condition that tells them apart may be missing. Equal entries are not always repeated.

What all share (format): cell-based, mouse
For assay [1], the system named is mES cells. Nature of the assay: Cardiomyocyte generation with 0 or 0.2 mM ascorbic acid, MF-20 immunostaining counted by flow cytometer. As to conditions: 10 days. As for the experimental part:
Low Oxygen and Ascorbic Acid Act Synergistically to Promote Cardiomyocyte Generation. mES cells were differentiated for 10 days at 142, 36, and 7 mmHg pO2 and with either 0 or 0.2 mM ascorbic acid. Cardiomyocyte generation was measured by counting fixed cells immunostained for sacromeric myosin heavy chain using the MF-20 with a flow cytometer. […] (FIGS. 10 and 11.).
A general note: In flow cytometry, cells or beads pass a laser one at a time.

For assay [2], the system named is J1 mES cells. Nature of the assay: Fraction of MF-20 positive cells (cardiomyocytes) by flow cytometry, alternate differentiation protocol. The source says:
(§1) • Undifferentiated ES cell culture. J1 and R1 ES cells were obtained from ATCC (SCRC 1010, SCRC 1036, Manassaas, Va.), expanded on Mitomycin-C treated MEF cells, and frozen into vials following ATCC protocols. Vials were thawed into undifferentiated ES cell maintenance medium (described in Table 1) containing supplemental leukaemia inhibitory factor (LIF) and plated at a density of about 5×10^4 cell/cm^2 on 25 cm^2 cell culture flasks (353109, Becton Dickinson, Franklin Lakes, N.J.) that were treated for 30 min with a sterile 0.1% (w/v) solution of gelatine (G-2500, Sigma-Aldrich, St. Louis, Mo.) in tissue culture water (WFI, 25-055-CM, Mediatech, Herndon, Va.). Medium (Table 1) was exchanged daily, and cells were detached with 0.25% trypsin (30-2101, ATCC) every two days. Split fractions were chosen so that cells were plated at approximately 1.2^[…] cells/cm^2. Cells were used for differentiation experiments 4-6 days after thawing the cell vials. • EB formation. […] The concentration of cells with intact membranes was determined using trypan blue cell counts, and cells were diluted to a concentration of 2.5×10^4 membrane-intact cells/ml. […] of this cell suspension were aliquoted onto the inside surface of the lids of 10×10 cm Petri dishes (351112, Becton Dickinson) using an 8-channel pipette. The lids were inverted and placed onto the bottoms of the dishes, which were filled with 15 ml of a pre-warmed (37° C.) solution containing 75% (v/v) Dulbecco's phosphate buffered saline (DPBS, 21-030-CM, Mediatech), 25% water, and 0.002% (w/v) gelatine. • EB transfer. […], the resulting EBs were manually pipetted off of the Petri dish lid using wide-orifice pipette tips (3532, Molecular BioProducts, San Diego, Calif.) and placed into the wells of custom-made 24-well culture dish, which had the plastic bottom replaced with fibronectin-coated silicone rubber membrane. 30 EBs were placed into each well, and the medium was mixed by pipetting to distribute the EBs uniformly across the plate bottom. • Culture of attached EBs. The EBs attached and spread within one day of transfer to the silicone rubber membrane-based dish. The medium was removed from all of the wells 2 days after EB transfer and was replaced with 1 ml of fresh ES cell differentiation medium. On the following day, the medium was removed and replaced with 1 ml serum-free differentiation medium (Table 2). Medium continued to be exchanged daily with the serum-free differentiation medium until the end of the experiment. • Cell collection for nuclei counting and flow cytometry. […]

In assay [3] the test system is R1 ES cells. The assay is described as above. The following applies: With 0.2 mM ascorbic acid.
From the text: as §1

The test system of assay [4] is mES cells. Nature of the assay: Adhesion of mES cells to polystyrene and silicone rubber, native or with adsorbed gelatin or fibronectin. As to conditions: after a day in culture. How it is done: FIG. 23. Adhesion of ES cells to polystyrene and silicone rubber. Adhesion of mES cells to polystyrene and silicone rubber in their native states or with 0.1% gelatin in water or […] fibronectin in PBS adsorbed onto the surface for 24 hr prior to cell addition. Below each pair of micrographs is quantitative data for the total, attached, and suspension cell numbers. Results shown are mean±SD for three wells in a 24 well plate seeded with 2×10^5 cell 26 hr prior to performing the cell counts.
PSS solution (polyanion) was added to an untreated plate and incubated for 1 hr, followed by a 10 min wash with DPBS, a 1 hr incubation with PEI (polycation), and a 10 min wash with DPBS. Two additional incubations with both PSS and PEI (30 min each) with intervening washes (10 min) were done to build a (PSS-PEI)3 PEM. To this PEM an additional 3 layers each of type B gelatin (polyanion) and PDL (polycation) were formed, using 30 min incubations with the polyelectrolyte solution, and 10 min washes with DPBS. The final PEM structure was thus (PSS-PEI)3-(type B gelatin—PDL)3. […] Attached nuclei were counted by adding 0.5 ml of lysis solution to the well and incubating for 10 min. […] The membrane-intact cell concentration was determined using trypan blue cell counts, and cells were diluted to a concentration of 25,000 membrane intact cells/ml. […]

For `O=C1O[C@H]([C@@H](O)CO)C(O)=C1O` [Ascorbic Acid, L-ascorbic acid], the “Effect on cardiomyocyte generation in combination with low pO2” value in assay [1] (0.2 mM combined with 36 mmHg pO2) is “a larger increase in cardiomyocytes than with either method alone”. Moreover, in assay [1] (0.2 mM vs 0 mM, at all pO2 (142, 36, 7 mmHg)), the “Effect on cardiomyocyte generation” value is “increased cardiomyocyte generation”. Also, the “Fraction of MF-20 positive cells” value in assay [2] (With 0.2 mM ascorbic acid, pO2gas 36, J1, 4 days hanging drop EBs then 7 days serum free ITS medium) was 18 and 25 and 16; in assay [3] (pO2gas 7, 4 days hanging drop EBs then 7 days serum free ITS medium), 4; in assay [3] (pO2gas 36, 4 days hanging drop EBs then 7 days serum free ITS medium), 22. Besides, in assay [2] (all of the oxygen conditions tested, P=0.0005, J1 and R1 experiments of Table 4), the “Change in fraction of cardiomyocytes when ascorbic acid was included in the culture medium” value was “highly significant increase”.
“fibronectin: protein adsorbed onto silicone rubber to promote cell adhesion (F1141, Sigma-Aldrich)”: in assay [4], the “Fraction of cells attached” value is listed as 99%.
